Article PMC5916221, “High-throughput identification of G protein-coupled receptor modulators through affinity mass spectrometry screening” (Chemical Science, 2018)
“And” between values parts separate entries of the source, which are not always exact repeats. Equal entries are not always repeated.

Assays:
[1] = target: T1, glucagon-like peptide-1 receptor (GLP-1R) (Homo sapiens, UniProt P43220, DEL258-263); experiment: affinity MS on receptor-expressing membranes, binding index vs rhodopsin control
T1 construct: gene GLP1R; TMD residues 128–431 with intracellular loop 2 (258–263) replaced by rubredoxin, N-terminal BRIL
T1 sequence (P43220 128-257): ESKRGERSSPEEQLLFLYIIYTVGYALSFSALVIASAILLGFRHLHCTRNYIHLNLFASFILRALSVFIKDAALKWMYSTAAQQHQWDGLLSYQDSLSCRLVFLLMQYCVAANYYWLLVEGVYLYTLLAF
T1 sequence (P43220 264-431): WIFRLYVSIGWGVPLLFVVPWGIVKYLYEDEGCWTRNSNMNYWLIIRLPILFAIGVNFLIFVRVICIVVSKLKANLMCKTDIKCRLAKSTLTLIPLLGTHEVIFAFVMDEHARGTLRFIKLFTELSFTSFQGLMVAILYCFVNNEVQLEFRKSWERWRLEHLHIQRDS

[2] = target: T2, 5-HT2CR (Homo sapiens, UniProt P28335); experiment: biochemical; parameters: CPM fluorescent dye thermal shift assay on purified receptor, Tm shift versus apo receptor; settings: single replicate of two; for ΔTm (°C): 100 µM, binder
T2 construct: gene HTR2C
T2 sequence (P28335 1-458): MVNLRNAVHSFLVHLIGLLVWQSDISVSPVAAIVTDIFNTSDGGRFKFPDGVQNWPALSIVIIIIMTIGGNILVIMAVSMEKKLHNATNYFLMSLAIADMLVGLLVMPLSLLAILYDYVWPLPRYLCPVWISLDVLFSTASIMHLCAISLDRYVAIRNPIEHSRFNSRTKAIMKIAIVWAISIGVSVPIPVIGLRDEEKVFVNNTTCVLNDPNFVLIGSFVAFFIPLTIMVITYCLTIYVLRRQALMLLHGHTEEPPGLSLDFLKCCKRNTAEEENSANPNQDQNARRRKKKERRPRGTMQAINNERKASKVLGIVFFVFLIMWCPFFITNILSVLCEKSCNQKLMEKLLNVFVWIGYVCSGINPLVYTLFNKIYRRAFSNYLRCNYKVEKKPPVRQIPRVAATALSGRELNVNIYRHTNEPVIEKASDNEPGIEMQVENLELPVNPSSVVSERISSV
Description: The thermal shift assay using a CPM fluorescent dye (Sigma) was performed as described in the literature.[27] […] The protein sample was heated step-wise on a Rotor-Gene Thermo-optical Analyzer (QIAGEN Gmbh) from 25 °C to 95 °C. Upon temperature rise, the proteins unfolded and cysteine residues were exposed to form adducts with CPM, which were detected by fluorescence at 387/463 nm using an EnVision multilabel plate reader (PerkinElmer). From the normalized thermal stability curve, melting temperatures (Tm) were obtained by fitting the curve with a Boltzmann sigmoidal function using GraphPad Prism. Comparison of Tm for the apo receptor and receptor incubated with a compound gave rise to Tm shift (ΔTm) for the compound. Using stringent data processing criteria for compound annotation and hit selection (see ESI ^†), we identified a total of 23 initial hits from screening the 9 cocktails (Fig. 2, full data set in Table S1 ^†). Twelve were well characterized antagonists for 5-HT2CR or a closely-related subfamily member 5-HT2AR with a mean BI of 2.16 to 9.71 (full data set in Table S2 ^†). […] While their IC50 or Ki values from the ChEMBL database were all above 10 nM, 85% had IC50 or Ki > 100 nM towards 5-HT2CR. Therefore, the stringent BI cut-off defined for hit selection ensured identification of highest affinity ligands with a minimal false-positive rate. To verify the 11 initial hits with no documented binding to the 5-HT2 receptor family, a simple mixture was created by pooling and incubating them with the receptor-expressing membranes. Four hits were verified in this secondary affinity MS assay (Fig. 3a). Those that were invalidated could have resulted from compound misidentification or altered binding properties in the original complex mixtures. […] The radioligand competition assay verified potent antagonist binding of 3943 to all three 5-HT2 receptor subtypes in the nanomolar range, with stronger affinity to 5-HT2A/2BR than 5-HT2CR (Fig. 3c, S3b ^†). It was not surprising to identify a new antagonist against three 5-HT2 receptor subfamily members using our approach because of the high sequence homology and very similar ligand binding pockets among them.

SMILES | affinity MS on receptor-expressing membranes, binding index vs rhodopsin control [1] | ΔTm at 100 µM [2] [°C] | ΔTm (°C) [2]
CS(=O)(=O)c1cccc(NC(=O)N(Cc2ccc(C(=O)Nc3nnn[nH]3)cc2)c2ccc(C3CCCCC3)cc2)c1 [NNC0640] | 3.31 binding index (ratio) |  | 
CC1(C)CC([C@@H](Nc2ccc(-n3cnc(C(F)(F)F)c3)nc2)c2ccc(C(=O)NCCC(=O)O)cc2)C1 [PF06372222] | 16.66 binding index (ratio) |  | 
CC(C)c1nc(CN(C)C(=O)N[C@H](C(=O)N[C@@H](Cc2ccccc2)C[C@H](O)[C@H](Cc2ccccc2)NC(=O)OCc2cncs2)C(C)C)cs1 [compound 462, Ritonavir] |  | 0.2 | 
C[C@@H]1CN(c2c(F)c(F)c3c(=O)c(C(=O)O)cn(C4CC4)c3c2F)C[C@H](C)N1 [compound 1382, Orbifloxacin] |  | 2 | 
O=C(NC1CCNCC1)c1n[nH]cc1NC(=O)c1c(Cl)cccc1Cl [compound 3931, AT 7519] |  |  | -3.0 °C and -0.2 °C
C1=Cc2ccccc2C(=C2CCN(CCCCc3nn[nH]n3)CC2)c2ccccc21 [compound 3943, AT-56] |  | 6.2 | 6.9 °C
